Source: patent publication US8614201B2 (Janssen Pharmaceutica NV, priority 2009, dated 2013)
pIC50: −log10 of the molar value.

Target: Human TRPA1 (Homo sapiens, UniProt O75762)
Assay: Alternative TRPA1 Ca2+ fluorometry assay (hTRPA1/TREx-HEK293 cells, Fluo-4, FDSS 6000)
Format: cell-based
Parameters: expressed in transfected cells
Conditions: Fluo-4-AM, agonist 6,11-dihydro-5H-dibenzo[b,e]azepine-10-carboxylic acid methyl ester 25 nM, procedure used for Examples 184, 190 to 192, 194 to 316
Protocol: In alternative embodiments, the assay was performed using the following procedure for Examples 184, 190 to 192, and 194 to 316:
The human TRPA1 gene was cloned into the pT-Rex-Dest30 inducible vector and stably transfected in T-Rex™-293 cells (Invitrogen, Merelbeke, Belgium). This tetracycline inducible hTRPA1 expression system was used in order to prevent CA^2+ overload in the cultured cells due to sustained TRPA1 expression. hTRPA1/TREx-HEK293 cells (referred to as jTRPA1 cells in the following text) were maintained under standard sterile cell culture conditions. The culture medium for the jTRPA1-HEK cells was DMEN (Gibco BRL, Invitrogen, Merelbeke, Belgium) supplemented with 5 g/l gengticin (Gibco), 5 mL/l blasticidin (Invitorgen), 14.6 g/l L-Glutamine (200 mMl; Gibco), 5 g/l penicillin/streptomycin (5.10-6 IU/I, Gibco), 5.5 g/l pyruvic acid (Gibco) and 10% foetal calf serum (Hyclone, Logan Utah, USA).
For Ca^2+ fluorometry experiments, hTRPA1-HEK cells were resuspended in HBSS seeding medium: HBSS (with CaCl2 and MgCl2: Gibco) supplemented with 14.6 g/l L-Glutamine (200 mM; Gibco), 5 g/l penicillin/streptomycin (5.10-6 IU/l. Gibco), 5.5 g/l pyruvic acid (Gibco) and 10% foetal calf serum (heat inactivated for 30 minutes at 56° C.; Hyclone, Logan Utah, USA). The cells were seeded in poly-D-lysine-coated 384-well round bottom polypropylene plates (Costar Corning, Data Packaging, Cambridge Mass., USA) at 12000 cells/well. Fifty ng/ml tetracycline was added to induce the hTRPA1 expression 24 h before the experiment.
The cells were loaded with 5 mg/l Fluo-4-AM (Molecular Probes, Invitorgen, Merelbeke, Belgium) dissolved in HBSS seeding medium supplemented with 0.7 g/l Probenecid (Sigma) and incubated for 1 h at 37° C. and subsequently at 20° C. for 1 to 2 h. The fluorescence was measured in the FDSS 6000 imaging based plate reader (Hamamutsu Photonics K.K., Hamamutsu City, Japan). The excitation wavelength was 488 nm and the emission wavelength 540 nm. After a control period of 12 seconds the inventive compounds were added and the Ca^2+ signal was measured within 14 minutes after application. Finally, a TRPA1 agonist, 6,11-dihydro-5H-dibenzo[b,e]azepine-10-carboxylic acid methyl ester, was added at a final concentration of 25 nM. The emission ratio was calculated by dividing the emission signal (Em540) by the first EM540 signal of the control period to compensate for the background fluorescence. […] For intracellular Ca^2+ measurements, a compound stock solution (10 to 100 mM) was further diluted in DMSO in order to obtain a final 1% DMSO concentration in the extracellular solution.

Chain of Human TRPA1 (O75762 whole entry): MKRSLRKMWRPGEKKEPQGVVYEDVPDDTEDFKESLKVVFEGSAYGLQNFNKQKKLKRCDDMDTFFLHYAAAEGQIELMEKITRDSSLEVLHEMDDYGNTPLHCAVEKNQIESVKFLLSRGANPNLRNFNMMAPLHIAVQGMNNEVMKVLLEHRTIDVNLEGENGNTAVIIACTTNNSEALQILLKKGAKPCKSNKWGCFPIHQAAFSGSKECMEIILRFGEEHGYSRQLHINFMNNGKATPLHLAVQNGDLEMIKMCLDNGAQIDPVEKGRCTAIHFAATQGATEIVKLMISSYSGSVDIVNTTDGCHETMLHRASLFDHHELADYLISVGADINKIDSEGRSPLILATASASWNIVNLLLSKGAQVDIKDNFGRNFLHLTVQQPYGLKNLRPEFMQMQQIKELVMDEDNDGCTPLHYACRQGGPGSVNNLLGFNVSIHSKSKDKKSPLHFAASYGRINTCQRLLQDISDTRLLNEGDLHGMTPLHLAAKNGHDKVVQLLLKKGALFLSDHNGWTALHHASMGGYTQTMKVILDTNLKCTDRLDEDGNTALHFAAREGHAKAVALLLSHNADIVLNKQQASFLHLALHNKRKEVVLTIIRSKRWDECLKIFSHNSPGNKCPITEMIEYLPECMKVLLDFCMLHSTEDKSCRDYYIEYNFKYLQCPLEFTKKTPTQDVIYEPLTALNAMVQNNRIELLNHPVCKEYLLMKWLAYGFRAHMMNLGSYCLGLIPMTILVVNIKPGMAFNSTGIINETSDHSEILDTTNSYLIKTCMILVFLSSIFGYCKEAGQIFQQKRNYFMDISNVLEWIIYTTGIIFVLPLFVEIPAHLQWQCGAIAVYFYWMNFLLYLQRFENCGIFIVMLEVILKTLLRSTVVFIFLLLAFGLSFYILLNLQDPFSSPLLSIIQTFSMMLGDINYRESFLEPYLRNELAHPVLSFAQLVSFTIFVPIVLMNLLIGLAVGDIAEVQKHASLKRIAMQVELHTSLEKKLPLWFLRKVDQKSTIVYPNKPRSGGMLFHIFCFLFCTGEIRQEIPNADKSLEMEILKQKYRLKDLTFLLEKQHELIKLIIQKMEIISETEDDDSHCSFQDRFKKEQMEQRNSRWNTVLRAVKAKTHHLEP

Compound | pIC50
O=C(NCc1cc(-c2ccc3c(c2)OCO3)nc(N2CCc3ccccc3C2)n1)[C@@H]1CCCN1S(=O)(=O)c1ccc(F)cc1 [Example 208, 1-(4-Fluoro-benzenesulfonyl)-pyrrolidine-2S-carboxylic acid [6-benzo[1,3]dioxol-5-yl-2-(3,4-dihydro-1H-isoquinolin-2-yl)-pyrimidin-4-ylmethyl]-amide] | 5.64
C#CCNc1nc(CNC(=O)[C@@H]2CCCN2S(=O)(=O)c2ccc(F)cc2)cc(-c2ccc(Br)cc2)n1 [Example 209, 1-(4-Fluoro-benzenesulfonyl)-pyrrolidine-2S-carboxylic acid [6-(4-bromo-phenyl)-2-prop-2-ynylamino-pyrimidin-4-ylmethyl]-amide] | 6.00
O=C(NCc1cc(-c2ccc(Br)cc2)nc(N[C@@H](CO)Cc2ccccc2)n1)[C@@H]1CCCN1S(=O)(=O)c1ccc(F)cc1 [Example 210, 1-(4-Fluoro-benzenesulfonyl)-pyrrolidine-2S-carboxylic acid [6-(4-bromo-phenyl)-2-(1S-hydroxymethyl-2-phenyl-ethylamino)-pyrimidin-4-ylmethyl]-amide] | 5.34
O=C(NCc1cc(-c2ccc(Br)cc2)nc(NC2CCCC2)n1)[C@@H]1CCCN1S(=O)(=O)c1ccc(F)cc1 [Example 211, 1-(4-Fluoro-benzenesulfonyl)-pyrrolidine-2S-carboxylic acid [6-(4-bromo-phenyl)-2-cyclopentylamino-pyrimidin-4-ylmethyl]-amide] | ~5.79
CC(Nc1nc(CNC(=O)[C@@H]2CCCN2S(=O)(=O)c2ccc(F)cc2)cc(-c2ccc(Br)cc2)n1)c1ccccc1 (stereo partly drawn) [Example 212, 1-(4-Fluoro-benzenesulfonyl)-pyrrolidine-2S-carboxylic acid [6-(4-bromo-phenyl)-2-(1(R,S)-phenyl-ethylamino)-pyrimidin-4-ylmethyl]-amide] | 6.17
O=C(NCc1cc(-c2ccc(Br)cc2)nc(N2CCC(Cc3ccccc3)CC2)n1)[C@@H]1CCCN1S(=O)(=O)c1ccc(F)cc1 [Example 213, 1-(4-Fluoro-benzenesulfonyl)-pyrrolidine-2S-carboxylic acid [2-(4-benzyl-piperidin-1-yl)-6-(4-bromo-phenyl)-pyrimidin-4-ylmethyl]-amide] | 5.62
CCOC(=O)C1CCN(c2nc(CNC(=O)[C@@H]3CCCN3S(=O)(=O)c3ccc(F)cc3)cc(-c3ccc(Br)cc3)n2)CC1 [Example 214, 1-[4-(4-Bromo-phenyl)-6-({[1-(4-fluoro-benzenesulfonyl)-pyrrolidine-2S-carbonyl]-amino}-methyl)-pyrimidin-2-yl]-piperidine-4-carboxylic acid ethyl ester] | ~6.01
CCCCNc1nc(CNC(=O)[C@@H]2CCCN2S(=O)(=O)c2ccc(F)cc2)cc(-c2ccc(Br)cc2)n1 [Example 215, 1-(4-Fluoro-benzenesulfonyl)-pyrrolidine-2S-carboxylic acid [6-(4-bromo-phenyl)-2-butylamino-pyrimidin-4-ylmethyl]-amide] | 5.99
O=C(NCc1cc(-c2ccc(Br)cc2)nc(N2CCN(c3ccccn3)CC2)n1)[C@@H]1CCCN1S(=O)(=O)c1ccc(F)cc1 [Example 216, 1-(4-Fluoro-benzenesulfonyl)-pyrrolidine-2S-carboxylic acid [6-(4-bromo-phenyl)-2-(4-pyridin-2-yl-piperazin-1-yl)-pyrimidin-4-ylmethyl]-amide] | 5.92
O=C(NCc1cc(-c2ccc(Br)cc2)nc(N2CCOCC2)n1)[C@@H]1CCCN1S(=O)(=O)c1ccc(F)cc1 [Example 217, 1-(4-Fluoro-benzenesulfonyl)-pyrrolidine-2S-carboxylic acid [6-(4-bromo-phenyl)-2-morpholin-4-yl-pyrimidin-4-ylmethyl]-amide] | 6.06
CN1CCCN(c2nc(CNC(=O)[C@@H]3CCCN3S(=O)(=O)c3ccc(F)cc3)cc(-c3ccc(Br)cc3)n2)CC1 [Example 218, 1-(4-Fluoro-benzenesulfonyl)-pyrrolidine-2S-carboxylic acid [6-(4-bromo-phenyl)-2-(4-methyl-[1,4]diazepan-1-yl)-pyrimidin-4-ylmethyl]-amide] | < 5.00
O=C(NCc1cc(-c2ccc(Br)cc2)nc(NCc2cccnc2)n1)[C@@H]1CCCN1S(=O)(=O)c1ccc(F)cc1 [Example 219, 1-(4-Fluoro-benzenesulfonyl)-pyrrolidine-2S-carboxylic acid {6-(4-bromo-phenyl)-2-[(pyridin-3-ylmethyl)-amino]-pyrimidin-4-ylmethyl}-amide] | ~5.57
CN1CCN(c2nc(CNC(=O)[C@@H]3CCCN3S(=O)(=O)c3ccc(F)cc3)cc(-c3ccc(Br)cc3)n2)CC1 [Example 220, 1-(4-Fluoro-benzenesulfonyl)-pyrrolidine-2S-carboxylic acid [6-(4-bromo-phenyl)-2-(4-methyl-piperazin-1-yl)-pyrimidin-4-ylmethyl]-amide] | ~5.35
O=C(NCc1cc(-c2ccc(Br)cc2)nc(NCCc2ccc(Cl)cc2Cl)n1)[C@@H]1CCCN1S(=O)(=O)c1ccc(F)cc1 [Example 221, 1-(4-Fluoro-benzenesulfonyl)-pyrrolidine-2S-carboxylic acid {6-(4-bromo-phenyl)-2-[2-(2,4-dichloro-phenyl)-ethylamino]-pyrimidin-4-ylmethyl}-amide] | 5.69
O=C(NCc1cc(-c2ccc(Br)cc2)nc(N2CCc3ccccc3C2)n1)[C@@H]1CCCN1S(=O)(=O)c1ccc(F)cc1 [Example 222, 1-(4-Fluoro-benzenesulfonyl)-pyrrolidine-2S-carboxylic acid [6-(4-bromo-phenyl)-2-(3,4-dihydro-1H-isoquinolin-2-yl)-pyrimidin-4-ylmethyl]-amide] | 5.04
O=C(NCc1cc(-c2ccc3c(c2)OCO3)nc(Nc2cccc(Cl)c2)n1)[C@@H]1CCCN1S(=O)(=O)c1ccc(F)cc1 [Example 223, 1-(4-Fluoro-benzenesulfonyl)-pyrrolidine-2S-carboxylic acid [6-benzo[1,3]dioxol-5-yl-2-(3-chloro-phenylamino)-pyrimidin-4-ylmethyl]-amide] | < 5.00
O=C(NCc1cc(-c2ccc3c(c2)OCO3)nc(Nc2ccc(Cl)cc2)n1)[C@@H]1CCCN1S(=O)(=O)c1ccc(F)cc1 [Example 224, 1-(4-Fluoro-benzenesulfonyl)-pyrrolidine-2S-carboxylic acid [6-benzo[1,3]dioxol-5-yl-2-(4-chloro-phenylamino)-pyrimidin-4-ylmethyl]-amide] | < 5.00
O=C(NCc1cc(-c2ccc3c(c2)OCO3)nc(Nc2ccc(F)cc2)n1)[C@@H]1CCCN1S(=O)(=O)c1ccc(F)cc1 [Example 225, 1-(4-Fluoro-benzenesulfonyl)-pyrrolidine-2S-carboxylic acid [6-benzo[1,3]dioxol-5-yl-2-(4-fluoro-phenylamino)-pyrimidin-4-ylmethyl]-amide] | 5.60
O=C(NCc1cc(-c2ccc(OC(F)(F)F)cc2)nc(N2CCN(c3ccccc3F)CC2)n1)[C@@H]1CCCN1S(=O)(=O)c1ccc(F)cc1 [Example 226, 1-(4-Fluoro-benzenesulfonyl)-pyrrolidine-2S-carboxylic acid [2-[4-(2-fluoro-phenyl)-piperazin-1-yl]-6-(4-trifluoromethoxy-phenyl)-pyrimidin-4-ylmethyl]-amide] | 6.94
O=C(NCc1cc(-c2ccc(F)cc2)nc(N2CCN(c3ccccc3F)CC2)n1)[C@@H]1CCCN1S(=O)(=O)c1ccc(F)cc1 [Example 227, 1-(4-Fluoro-benzenesulfonyl)-pyrrolidine-2S-carboxylic acid {6-(4-fluoro-phenyl)-2-[4-(2-fluoro-phenyl)-piperazin-1-yl]-pyrimidin-4-ylmethyl}-amide] | 5.93
COc1cccc(OC)c1-c1cc(CNC(=O)[C@@H]2CCCN2S(=O)(=O)c2ccc(F)cc2)nc(N2CCN(c3ccccc3F)CC2)n1 [Example 228, 1-(4-Fluoro-benzenesulfonyl)-pyrrolidine-2S-carboxylic acid {6-(2,6-dimethoxy-phenyl)-2-[4-(2-fluoro-phenyl)-piperazin-1-yl]-pyrimidin-4-ylmethyl}-amide] | 5.64
N#Cc1ccc(-c2cc(CNC(=O)[C@@H]3CCCN3S(=O)(=O)c3ccc(F)cc3)nc(N3CCN(c4ccccc4F)CC3)n2)cc1 [Example 229, 1-(4-Fluoro-benzenesulfonyl)-pyrrolidine-2-carboxylic acid {6-(4-cyano-phenyl)-2-[4-(2-fluoro-phenyl)-piperazin-1-yl]-pyrimidin-4-ylmethyl}-amide] | 5.80
